Structures are written as SMILES. Counter-ions that a name gives are not always drawn. Like-named read-outs stand apart in the source and are kept apart here.

The test system of data set [1] is phosphorylated IRF3 protein in FaDu cell. The data set is described as follows: Phosphorylated IRF3 protein detection in FaDu cell. Format: cell-based, human. The conditions noted are these: at 30 μM; 6 hr; 2′,3′-cGAMP 30 μM = 100%. As for the experimental part: Human larynx cancer cell line FaDu cell (ATCC) was seeded, the medium was replaced with serum free medium one day after the seeding. After the replacement, the cell was cultured for one day, and to the cell were added the natural ligand 2′,3′-cGAMIP (the final concentration; 30 μM) and test compound (the final concentration; 15 μM or 30 μM). 6 hr after the addition, the cell was washed with PBS, the cell extract was prepared, and the phosphorylated IRF3 protein was detected by ELISA method or Western blotting method. The IRF3 protein phosphorylation activity of the test compound was calculated when the value in the sample with adding the natural ligand 2′,3′-cGAMP at the final concentration of 30 μM was considered as 100%.

Data set [2] concerns the target WT STING (Homo sapiens (Human), UniProt Q86WV6, H232R). Format: cell-based.
The test system of data set [3] is B16F10 syngeneic mice model. The experiment in a line: Syngeneic tumor model, anti-tumor effect, B16F10. Format: in vivo, mouse. The conditions noted are these: C57BL/6 mice; intravenous, every 3 days, 3 times; Ex3a 30 mg/kg, Ex14 1.0 mg/kg. As for the experimental part:
(§1) Ex14 and Ex3a were tested in syngeneic tumor models in mice. […] See FIG. 8 and FIG. 9 for the anti-tumor effect colon carcinoma CT-26 syngeneic mice model, and FIG. 10 and FIG. 11 for the anti-tumor effect in the […] B16F10 syngeneic mice model.
(§2) 8×10^4 B16F10 and 2×10^5 CT-26 mouse tumor cells were subcutaneously implanted in the flank of female C57BL/6 (B16F10) and Balb/C (CT-26) mice (n=7 per group). Vehicle (1×PBS), compound Ex3a (30 mg/kg) or Ex14 (1.0 mg/kg) were intravenously administered (final volume of 100 μL) to tumor-bearing mice once the tumor volume has reached 100 mm^3 (Day 0). Vehicle, Ex3a or Ex14 were given every 3 days for a total of 3 doses (q3dx3). Tumor and body weight measurements were taken three times per week using vernier calipers and mettler scale, respectively. Tumor volumes were determined by multiplying the square of the width (‘W’), measured along the short axis of the tumor, by one-half the length (‘L’) measured along the […]

Data set [4] can be described thus: Human plasma stability assay. The class given is in vitro ADME. The conditions noted are these: 37° C., 0-24 hours, LC/MS/MS. As for the experimental part:
The compound was incubated in heparinized human plasma at 37° C. for 0, 1, 2, 4, 8 and 24 hours, and the change in compound concentration was measured by LC/MS/MS method. The elimination rate constant (=k(/h)) was calculated based on the fitted curve assuming the exponential decrease of concentration as follows; concentration at time x=initial concentration*exp(−k*x).

Data set [5] has as its system THP1-Dual cells (ISG54 promoter Lucia luciferase reporter). The experiment in a line: THP-1 Dual Lucia reporter gene assay. The class given is cell-based, human. The conditions noted are these: 20 hours incubation, read-out: THP-1 Dual cell EC50 (μM) Reporter. As for the experimental part: THP1-Dual™ cells (InvivoGen #thpd-nfis) were derived from the human THP-1 monocyte cell line by stable integration of the Lucia luciferase gene, a secreted luciferase reporter gene, under the control of an ISG54 (interferon-stimulated gene) minimal promoter in conjunction with five interferon (IFN)-stimulated response elements. On the day of experiment, the cells were plated to a black, 384-well plate (Corning 356697) at 7500 cells/25 μL per well density in growth media (RPMI 1640, 2 mM L-glutamine, 25 mM HEPES, 10% heat-inactivated fetal bovine serum, 100 μg/mL Normocin™, 100 U/mL-100 μg/mL Pen-Strep, 10 μg/mL of blasticidin, and 100 μg/mL of Zeocin). The cell plates were dosed with 62.5 nL of the testing compounds, and then incubated at 37° C. for 20 hours. At the end of the incubation, 15 μL/well of the QUANTI-Luc™ (InvivoGen #rep-qlc1) were added, and luminescence was measured immediately using the LeadSeeker.
On the technique in general: In a reporter assay the amount or activity of a reporter protein is the signal.

Data set [6] deals with colon carcinoma CT-26 syngeneic mice model. The experiment in a line: Syngeneic tumor model, anti-tumor effect, CT-26. The conditions noted are these: Balb/C mice; intravenous, every 3 days, 3 times; Ex3a 30 mg/kg, Ex14 1.0 mg/kg. Format: in vivo, mouse. The procedure: as §1, §2

Chain of WT STING (Q86WV6 whole entry H232R): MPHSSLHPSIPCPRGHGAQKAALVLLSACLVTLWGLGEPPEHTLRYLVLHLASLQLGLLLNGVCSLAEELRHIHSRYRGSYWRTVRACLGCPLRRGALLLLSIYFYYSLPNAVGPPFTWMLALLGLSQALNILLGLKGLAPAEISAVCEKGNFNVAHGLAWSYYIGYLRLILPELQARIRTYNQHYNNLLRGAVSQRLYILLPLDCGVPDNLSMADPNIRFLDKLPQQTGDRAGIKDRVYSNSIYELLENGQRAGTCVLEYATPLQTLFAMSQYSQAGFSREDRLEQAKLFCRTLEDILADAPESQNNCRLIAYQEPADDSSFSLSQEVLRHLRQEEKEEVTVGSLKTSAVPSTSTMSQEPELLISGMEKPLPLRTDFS

Take `Nc1ncnc2c1ncn2[C@@H]1O[C@@H]2COP(=O)(O)O[C@@H]3[C@H](O)[C@@H](COP(=O)(O)O[C@H]2[C@H]1F)O[C@H]3n1cc(F)c2c(=O)[nH]cnc21` [Example 1, 7-((5R,7R,8R,12aR,14R,15R,15aR,16R)-14-(6-amino-9H-purin-9-yl)-15-fluoro-2,10,16-trihydroxy-2,10-dioxidooctahydro-12H-5,8-methanofuro[3,2-1][1,3,6,9,11,2,10]pentaoxadiphosphacyclotetradecin-7-yl)-5-fluoro-3,7-dihydro-4H-pyrrolo[2,3-d]pyrimidin-4-one di-triethylamine Salt]: in data set [1], the “activity level of test compound, IRF3 protein phosphorylation test” value (“activity level of test compound” for short) is recorded as 468.8% at 30 μM. As to `Nc1ncnc2c1ncn2[C@@H]1O[C@@H]2COP(=O)(O)O[C@@H]3[C@H](O)[C@@H](COP(=O)(S)O[C@H]2[C@H]1F)O[C@H]3n1cc(F)c2c(=O)[nH]cnc21` (stereo partly drawn) [Example 2, 7-((5R,7R,8R,12aR,14R,15R,15aR,16R)-14-(6-amino-9H-purin-9-yl)-15-fluoro-10,16-dihydroxy-2,10-dioxido-2-sulfanyloctahydro-12H-5,8-methanofuro[3,2-1][1,3,6,9,11,2,10]pentaoxadiphosphacyclotetradecin-7-yl)-5-fluoro-3,7-dihydro-4H-pyrrolo[2,3-d]pyrimidin-4-one di-triethylamine Salt (Optical Isomer)], in data set [1], the “activity level of test compound” value is recorded as 88.7% at 30 μM. The “activity level against WT STING of test compound (30 μM)” value (from here on “activity level against WT STING”) in data set [2] worked out at 112%. With `Nc1ncnc2c1ncn2[C@@H]1O[C@@H]2COP(=O)(O)O[C@@H]3[C@H](O)[C@@H](COP(=O)(S)O[C@H]2[C@H]1F)O[C@H]3n1cc(F)c2c(=O)[nH]cnc21` (stereo partly drawn) [Example 3, 7-((2R,5R,7R,8R,12aR,14R,15R,15aR,16R)-14-(6-amino-9H-purin-9-yl)-15-fluoro-10,16-dihydroxy-2,10-dioxido-2-sulfanyloctahydro-12H-5,8-methanofuro[3,2-1][1,3,6,9,11,2,10]pentaoxadiphosphacyclotetradecin-7-yl)-5-fluoro-3,7-dihydro-4H-pyrrolo[2,3-d]pyrimidin-4-one 1.7 Triethylamine Salt], in data set [1], the “activity level of test compound” value is on record as 464.6% at 30 μM. Broadly, the EC50 is the concentration needed to bring the measured effect to its halfway point. Regarding `Nc1ncnc2c1ncn2[C@@H]1O[C@@H]2COP(=O)(O)O[C@@H]3[C@H](O)[C@@H](COP(=O)(S)O[C@H]2[C@H]1F)O[C@H]3n1cc(F)c2c(=O)[nH]cnc21` (stereo partly drawn) [Example 3a, 7-((2R,5R,7R,8R,12aR,14R,15R,15aR,16R)-14-(6-amino-9H-purin-9-yl)-15-fluoro-10,16-dihydroxy-2,10-dioxido-2-sulfanyloctahydro-12H-5,8-methanofuro[3,2-1][1,3,6,9,11,2,10]pentaoxadiphosphacyclotetradecin-7-yl)-5-fluoro-3,7-dihydro-4H-pyrrolo[2,3-d]pyrimidin-4-one Disodium Salt], the “anti-tumor effect (tumor volume)” value in data set [3] and in data set [6] was “anti-tumor effects were observed” in each case. Also, the “Human plasma stability (/h), elimination rate constant k” value (“Human plasma stability (/h)” below) in data set [4] turned out to be 0.58 h⁻¹. For the same molecule, the concentration for a half-maximal effect (EC50) in data set [5] (Homo sapiens, THP1-Dual) was determined as 5.6 µM; in data set [2] (with digitonin, read-out: STING-293T cell EC50 (μM) Reporter with digitonin (B)) it was 0.13 µM. On to `Nc1ncnc2c1ncn2[C@@H]1O[C@@H]2COP(=O)(S)O[C@@H]3[C@H](O)[C@@H](COP(=O)(S)O[C@H]2[C@H]1O)O[C@H]3n1cc(F)c2c(=O)[nH]cnc21` (stereo partly drawn) [Example 5, 7-((5R,7R,8R,12aR,14R,15R,15aS,16R)-14-(6-amino-9H-purin-9-yl)-15,16-dihydroxy-2,10-dioxido-2,10-disulfanyloctahydro-12H-5,8-methanofuro[3,2-1][1,3,6,9,11,2,10]pentaoxadiphosphacyclotetradecin-7-yl)-5-fluoro-3,7-dihydro-4H-pyrrolo[2,3-d]pyrimidin-4-one di-triethylamine Salt (Optical Isomer)], for which, in data set [4], the “Human plasma stability (/h)” value is less than 0.01 h⁻¹. Moreover, the “activity level of test compound” value in data set [1] turned out to be 117.4% at 30 μM. Consider `Nc1nc2c(ncn2[C@@H]2O[C@@H]3COP(=O)(O)O[C@H]4[C@@H](O)[C@H](c5cnn6c(N)ncnc56)O[C@@H]4COP(=O)(O)O[C@@H]2[C@@H]3O)c(=O)[nH]1` [Example 13, 2-amino-9-((5R,7R,8R,12aR,14S,15S,15aS,16R)-14-(4-aminopyrazolo[1,5-a][1,3,5]triazin-8-yl)-2,10,15,16-tetrahydroxy-2,10-dioxidooctahydro-12H-5,8-methanofuro[3,2-1][1,3,6,9,11,2,10]pentaoxadiphosphacyclotetradecin-7-yl)-1,9-dihydro-6H-purin-6-one di-triethylamine Salt], for which the “activity level against WT STING” value in data set [2] is given as 99%. In the case of `Nc1ncnc2c1ncn2[C@@H]1O[C@@H]2COP(=O)(S)O[C@@H]3[C@H](O)[C@@H](COP(=O)(S)O[C@H]2[C@H]1F)O[C@H]3n1cc(F)c2c(=O)[nH]cnc21` (stereo partly drawn) [Example 14, 7-((2R,5R,7R,8R,10R,12aR,14R,15R,15aR,16R)-14-(6-amino-9H-purin-9-yl)-15-fluoro-16-hydroxy-2,10-dioxido-2,10-disulfanyloctahydro-12H-5,8-methanofuro[3,2-1][1,3,6,9,11,2,10]pentaoxadiphosphacyclotetradecin-7-yl)-5-fluoro-3,7-dihydro-4H-pyrrolo[2,3-d]pyrimidin-4-one Disodium Salt], the “anti-tumor effect (tumor volume)” value in data set [3] and in data set [6] was “anti-tumor effects were observed” each time. In addition, the “Human plasma stability (/h)” value in data set [4] is less than 0.01 h⁻¹. Turning to `Nc1ncnc2c1ncn2[C@@H]1O[C@@]23CO[C@@H]1[C@@H]2OP(=O)(S)OC[C@H]1O[C@@H](n2cc(F)c4c(=O)[nH]cnc42)[C@H](OP(=O)(O)OC3)[C@@H]1O` (stereo partly drawn) [Example 17, 7-((5R,7R,8R,12aR,14R,15R,15aS,18R)-14-(6-amino-9H-purin-9-yl)-10,18-dihydroxy-2,10-dioxido-2-sulfanylhexahydro-14H-15,12a-(epoxymethano)-5,8-methanofuro[3,2-1][1,3,6,9,11,2,10]pentaoxadiphosphacyclotetradecin-7(12H)-yl)-5-fluoro-3,7-dihydro-4H-pyrrolo[2,3-d]pyrimidin-4-one di-triethylamine Salt], the “activity level against WT STING” value in data set [2] is reported as 110%. Turning to `Nc1nc2c(ncn2[C@@H]2O[C@@H]3COP(=O)(O)O[C@@H]4[C@H](O)[C@@H](COP(=O)(O)O[C@H]3[C@H]2F)O[C@H]4n2cc(F)c3c(=O)[nH]cnc32)c(=O)[nH]1` [Example 19, 2-amino-9-((5R,7R,8R,12aR,14R,15R,15aR,16R)-15-fluoro-7-(5-fluoro-4-oxo-3,4-dihydro-7H-pyrrolo[2,3-d]pyrimidin-7-yl)-2,10,16-trihydroxy-2,10-dioxidooctahydro-12H-5,8-methanofuro[3,2-1][1,3,6,9,11,2,10]pentaoxadiphosphacyclotetradecin-14-yl)-1,9-dihydro-6H-purin-6-one di-triethylamine Salt], the “activity level against WT STING” value in data set [2] was 101%. Take `Nc1nc2c(ncn2[C@@H]2O[C@@H]3COP(=O)(O)O[C@H]4[C@@H](O)[C@H](n5cnc6c(N)ncnc65)O[C@@H]4COP(=O)(O)O[C@@H]2[C@@H]3O)c(=O)[nH]1` [cGAMP, 2′,3′-cGAMP, reference compound]: in data set [4], the “Human plasma stability (/h)” value amounted to 1.39 h⁻¹. Also, in data set [5], the EC50 was found to be 18 µM.

These data come from patent US20250205270A1, “ANTIBODY-DRUG CONJUGATE PRECURSORS COMPRISING A CYCLIC DINUCLEOTIDE” (TAKEDA PHARMACEUTICAL COMPANY LIMITED, priority 2016, published 2025).
